Data published in patent US20160022636A1, “PHYSIOLOGICAL LIGANDS FOR GPR139” (JANSSEN PHARMACEUTICA NV, priority 2013, published 2016).
“And” between values parts separate entries of the source, which are not always exact repeats. Identical values can stand only once.

Legend:
GPR139 [1] = target: T1, GPR139 (Homo sapiens, UniProt Q6DWJ6); test: GTPγS binding dose response, COS7 membranes co-transfected with human GPR139 and GO2Q; format: biochemical; parameters: expressed in transfected cells; host or cells: COS7; conditions: human GPR139, FIG. 2 A and B
T1 sequence (Q6DWJ6 1-353): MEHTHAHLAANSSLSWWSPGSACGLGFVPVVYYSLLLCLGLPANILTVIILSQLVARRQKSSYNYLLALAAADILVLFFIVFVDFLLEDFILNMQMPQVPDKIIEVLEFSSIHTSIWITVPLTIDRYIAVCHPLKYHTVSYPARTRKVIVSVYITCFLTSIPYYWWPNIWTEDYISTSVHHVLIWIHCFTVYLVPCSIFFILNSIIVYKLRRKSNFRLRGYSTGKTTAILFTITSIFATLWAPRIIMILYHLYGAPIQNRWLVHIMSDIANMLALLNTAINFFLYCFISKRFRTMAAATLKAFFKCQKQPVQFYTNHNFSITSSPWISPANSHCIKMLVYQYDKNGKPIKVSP
Text: (§1) FIG. 2: Tryptophan, phenylalanine, and their derivatives activate GPR139. Human (A and B) or mouse (C and D) GPR139 were co-transfected with chimeric G-protein GO2Q into COS7 cells. Cell membranes from transfected cells were used in GTPγS binding studies using various ligands at different concentrations to stimulate GPR139. Membranes from COS7 cells transfected by GO2Q were used as the controls (E and F).

GPR182 = target: T2, GPR182 (Homo sapiens, UniProt O15218); test: GTPγS binding assay, membranes co-expressing GO2Q and GPR182; format: biochemical; conditions: data not shown
T2 construct: expressed in transfected cells; host or cells: COS7
Procedure: (§2) To test for compounds that activate GPR139, different amino acids and their derivatives (Table 2) were tested as ligands in the GTPγS binding assay using cell membranes from COS7 cells co-expressing GPR139 and GO2Q. Cell membrane from COS7 cells expressing GO2Q alone or co-expressing other GPCRs were also tested in GTPγS binding assay in parallel as controls. Each compound was tested in triplicate.

GPCR132 = test: GTPγS binding assay, membranes co-expressing GO2Q and GPCR132; format: biochemical; conditions: data not shown
Procedure: as §2

GPCR119 = test: GTPγS binding assay, membranes co-expressing GO2Q and GPCR119; format: biochemical; conditions: data not shown
Procedure: as §2

GPR52 = target: T3, GPR52 (Homo sapiens, UniProt Q9Y2T5); test: GTPγS binding assay, membranes co-expressing GO2Q and GPR52; format: biochemical; conditions: data not shown
T3 construct: expressed in transfected cells; host or cells: COS7
Procedure: as §2

GPCR134 = test: GTPγS binding assay, membranes co-expressing GO2Q and GPCR134; format: biochemical; conditions: data not shown
Procedure: as §2

mouse GPR139 = target: T4, mouse GPR139 (Mus musculus, UniProt Q80UC8); test: GTPγS binding dose response, COS7 membranes co-transfected with mouse GPR139 and GO2Q; format: biochemical; conditions: mouse GPR139, FIG. 2 C and D
T4 construct: expressed in transfected cells; host or cells: COS7
T4 sequence (Q80UC8 1-345): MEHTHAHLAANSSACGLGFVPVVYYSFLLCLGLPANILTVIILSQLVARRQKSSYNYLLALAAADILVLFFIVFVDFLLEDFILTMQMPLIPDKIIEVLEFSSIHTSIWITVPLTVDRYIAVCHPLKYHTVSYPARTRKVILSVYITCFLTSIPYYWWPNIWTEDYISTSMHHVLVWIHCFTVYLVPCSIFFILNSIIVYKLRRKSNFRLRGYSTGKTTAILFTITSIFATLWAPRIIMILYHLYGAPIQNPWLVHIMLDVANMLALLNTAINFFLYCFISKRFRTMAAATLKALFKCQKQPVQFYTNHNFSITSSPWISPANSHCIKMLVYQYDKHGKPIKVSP
Text: as §1

GO2Q alone = test: GTPγS binding assay, control membranes from COS7 cells expressing GO2Q alone (Ct-GO2Q); format: biochemical; conditions: for Activation levels (GTPγS binding signal), Ct-GO2Q: 1 mM final concentration, single wells of triplicate, COS7 membranes with GO2Q alone (control panel); for activation of membranes from cells expressing GO2Q alone (in words): 1 mM, same assay
Text: as §1, with “Human” for “FIG. 2: Tryptophan, phenylalanine, and their derivatives activate GPR139. Human”
(§3) In order identify the ligands for GPR139 two improvements in the detection assay were made to allow for the ligands to be detected. First, we chose to use a GTPγS binding assay instead of using live cultured cells. The GTPγS binding assay is a cell free system that uses the cell membrane of the cell(s) of interest rather than the live cell(s). One advantage of this assay is that potential ligands present in the cell culture media are washed away when the cell membrane is prepared. This reduces the basal level of signal and increase the chance of detecting receptor ligands when assessing compounds that activate the receptor. Second, a GO2Q chimeric G-protein was created to be co-expressed with GPR139 in order to increase the signal-to-noise ratio in the GTPγS binding assay. Historically, the Gi, Go coupled GPCRs offer much greater signal-to-noise ratio in GTPγS binding studies. For Gs and Gq coupled GPCRs, although ligand-stimulated specific signals can be detected in a GTPγS binding assay, the signal-to-noise ratios are often very small. To address this a chimeric GO2-Gq chimeric G-protein, GO2Q, with the N-terminus from Go2 protein and the C-terminus from Gq protein.
as §2

GPR21 = target: T5, GPR21 (Homo sapiens, UniProt Q99679); test: GTPγS binding assay, membranes co-expressing GO2Q and GPR21; format: biochemical; conditions: data not shown
T5 construct: expressed in transfected cells; host or cells: COS7
Procedure: as §2

GPR139 [2] = target: T1, GPR139; test: GTPγS binding assay, membranes from COS7 cells co-expressing GPR139 and GO2Q, single concentration screen; format: biochemical; parameters: expressed in transfected cells; host or cells: COS7; conditions: for activation of GPR139 in GTPγS binding assay (in words): 1 mM; for Activation levels of GPR139 (GTPγS binding signal), GPR139-GO2Q: 1 mM final concentration, single wells of triplicate, COS7 membranes co-expressing GPR139 and GO2Q
Procedure: as §3, §2

GPR139 [3] = target: T1, GPR139; test: calcium mobilization assay (FLIPR), GPR139 transiently expressed in HEK293 cells; format: cell-based; parameters: expressed in transfected cells; host or cells: HEK293; conditions: HEK293 cells transiently expressing human GPR139, FIG. 3
Text: For these experiments human GPR139 was transiently expressed in HEK293 cells and calcium mobilization was stimulated using L-Trp, L-Phe or their derivatives.

T5 sequence (Q99679 whole entry, species assumed): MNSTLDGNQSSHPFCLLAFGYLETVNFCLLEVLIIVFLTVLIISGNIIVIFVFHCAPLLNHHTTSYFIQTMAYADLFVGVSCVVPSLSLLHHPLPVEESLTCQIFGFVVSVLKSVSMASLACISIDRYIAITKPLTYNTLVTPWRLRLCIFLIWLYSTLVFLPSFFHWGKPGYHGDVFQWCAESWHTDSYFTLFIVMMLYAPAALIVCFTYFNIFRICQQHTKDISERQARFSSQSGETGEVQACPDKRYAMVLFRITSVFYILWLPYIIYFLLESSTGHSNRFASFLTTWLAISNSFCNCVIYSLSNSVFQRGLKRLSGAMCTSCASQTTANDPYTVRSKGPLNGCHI
T3 sequence (Q9Y2T5 whole entry, species assumed): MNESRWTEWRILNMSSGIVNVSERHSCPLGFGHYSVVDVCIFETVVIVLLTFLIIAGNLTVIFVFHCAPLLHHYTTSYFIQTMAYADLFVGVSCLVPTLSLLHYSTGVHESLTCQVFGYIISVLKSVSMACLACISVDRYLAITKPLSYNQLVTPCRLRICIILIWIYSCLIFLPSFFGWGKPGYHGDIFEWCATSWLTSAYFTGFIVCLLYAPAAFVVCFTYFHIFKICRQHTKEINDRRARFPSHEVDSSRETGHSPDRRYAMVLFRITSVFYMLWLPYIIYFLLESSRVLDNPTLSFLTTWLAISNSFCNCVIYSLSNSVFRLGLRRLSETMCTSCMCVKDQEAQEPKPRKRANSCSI
T2 sequence (O15218 whole entry, species assumed): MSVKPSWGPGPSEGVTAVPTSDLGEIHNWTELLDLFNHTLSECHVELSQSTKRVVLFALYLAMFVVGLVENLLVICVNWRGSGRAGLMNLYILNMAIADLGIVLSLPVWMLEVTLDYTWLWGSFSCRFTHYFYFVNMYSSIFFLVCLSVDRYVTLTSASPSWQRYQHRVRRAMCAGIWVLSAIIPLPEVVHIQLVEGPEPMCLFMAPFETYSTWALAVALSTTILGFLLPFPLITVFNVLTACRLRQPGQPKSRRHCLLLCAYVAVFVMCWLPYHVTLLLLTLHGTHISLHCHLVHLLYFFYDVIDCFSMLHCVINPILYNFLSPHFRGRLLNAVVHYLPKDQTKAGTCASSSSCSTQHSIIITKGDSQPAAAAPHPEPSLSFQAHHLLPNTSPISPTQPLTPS

| Structure (SMILES) | dose response activation of GPR139 (in words) (GPR139 [1]) | activation of membranes co-expressing GO2Q and GPR182 (in words) (GPR182) | activation of membranes co-expressing GO2Q and GPCR132 (in words) (GPCR132) | activation of membranes co-expressing GO2Q and GPCR119 (in words) (GPCR119) | activation of membranes co-expressing GO2Q and GPR52 (in words) (GPR52) | activation of membranes co-expressing GO2Q and GPCR134 (in words) (GPCR134) | dose response activation of GPR139 (in words) (mouse GPR139) | Activation levels (GTPγS binding signal), Ct-GO2Q (GO2Q alone) | activation of membranes from cells expressing GO2Q alone (in words) (GO2Q alone) | activation of membranes co-expressing GO2Q and GPR21 (in words) (GPR21) | activation of GPR139 in GTPγS binding assay (in words) (GPR139 [2]) | Activation levels of GPR139 (GTPγS binding signal), GPR139-GO2Q (GPR139 [2]) | stimulation of calcium mobilization (in words) (GPR139 [3]) |
| --- | --- | --- | --- | --- | --- | --- | --- | --- | --- | --- | --- | --- | --- |
| N[C@@H](Cc1ccccc1)C(=O)O [L-Phe, L-phenylalanine] | specifically activate GPR139 in a dose-responsive manner | did not activate | did not activate | did not activate | did not activate | did not activate | specifically activate GPR139 in a dose-responsive manner | 2190 and 2215 and 2345 | did not activate | did not activate | able to activate GPR139 | 8697 and 6925 and 8417 | specifically stimulate calcium mobilization |
| N[C@@H](Cc1c[nH]c2ccccc12)C(=O)O [L-Trp, L-tryptophan] | specifically activate GPR139 in a dose-responsive manner | did not activate | did not activate | did not activate | did not activate | did not activate | specifically activate GPR139 in a dose-responsive manner | 2172 and 2234 and 2272 | did not activate | did not activate | able to activate GPR139 | 8141 and 9121 and 9149 | specifically stimulate calcium mobilization |
